“Also recorded” adds a separate entry of the source. Like-named read-outs stand apart in the source and are kept apart here.
System: monkeys trained to discriminate cocaine (0.40 mg/kg) from saline
Test: Cocaine drug discrimination (substitution protocol) in rhesus monkeys
Format: in vivo, rhesus monkeys (Macaca mulatta)
Settings: for ED50: Primates, in Macaca mulatta, cumulative dosing, read-out: ED50 in producing cocaine-appropriate responding; for Effect on response rates: substituting doses of test compound / training dose of cocaine, relative to saline control
Source text: Subjects: The subjects were four male rhesus monkeys (Macaca mulatta) each weighing 7.0-8.0 kg. Each monkey was maintained on a diet of 7-12 monkey biscuits (Purina Monkey Chow Jumbo #5037) and one piece of fresh fruit per day. During the week, all food was delivered after the experimental session, whereas on weekends, food was delivered between 9 a.m. and noon. Water was freely available at all times. The room in which the monkeys were housed was maintained on a 12-hr light/dark cycle, with lights on from 7 a.m. to 7 p.m.
Apparatus: Each monkey was housed individually in a well-ventilated, stainless steel chamber (56×71×69 cm). The home cages of all monkeys were modified to include an operant panel (28×28 cm) mounted on the front wall. Three square translucent response keys (6.4×6.4 cm) were arranged 2.54 cm apart in a horizontal row 3.2 cm from the top of the operant panel. Each key could be transilluminated by red or green stimulus lights (Superbright LED'S). In addition, the operant panel supported an externally mounted pellet dispenser (Gerbrands, Model G53 10, Arlington, Mass.) that delivered 1 gm fruit-flavored food pellets (Precision Primate Pellets Formula L/I Banana Flavor, P. J. Noyes Co., Lancaster, N.H.) to a food receptacle mounted on the cage beneath the operant response panel. Operation of the operant panels and data collection were accomplished with IBM-compatible computers and interface systems (MedAssociates; St. Albans, Vt.) located in a separate room.
Discrimination Training: Discrimination training was conducted 5 days per week during daily sessions composed of multiple cycles. Each cycle consisted of a 15-min time-out period followed by a 5-min response period. During the time-out, all stimulus lights were off, and responding had no scheduled consequences. During the response period, the right and left response keys were transilluminated red or green, and monkeys could earn up to 10 food pellets by responding under a FR 30 schedule of food presentation. For all four monkeys in this study, the left key was illuminated green, and the right key was illuminated red. The center key was not illuminated at any time, and responding on the center key had no scheduled consequences. If all available food pellets were delivered before the end of the 5-min response period, the stimulus lights transilluminating the response keys were turned off, and responding had no scheduled consequences for the remainder of the 5-min period.
On training days, monkeys were given an i.m. injection of either saline or 0.40 mg/kg cocaine 5-min after the beginning of each time-out period (i.e., 10 min before the response period). Following the administration of saline, responding on only the green key (the saline-appropriate key) produced food, whereas following administration of 0.40 mg/kg cocaine, only responding on the red key (the drug-appropriate key) produced food. Responses on the inappropriate key reset the FR requirement on the appropriate key. Sessions consisted of 1 to 5 cycles, and if the training dose of cocaine was administered, it was administered only during the last cycle. Thus, training days consisted of 0 to 5 saline cycles followed by 0 to 1 drug cycles.
During each response period, 3 dependent variables were determined using the following equations.
1) Percent injection-appropriate responding prior to delivery of the first reinforcer.
2) Percent injection-appropriate responding for the entire response period.
Monkeys were considered to have acquired cocaine discrimination when the following three criteria were met for 7 of 8 consecutive training sessions: 1) the percent injection-appropriate responding prior to delivery of the first reinforcer was greater than or equal to 80% for all cycles; 2) the percent injection-appropriate responding for the entire cycle was greater than or equal to 90% for all cycles; 3) response rates during saline training cycles were greater than 0.5 responses per second. […]

`NC(=O)OC[C@H](N)Cc1ccccc1` [test compound, O-carbamoyl-(D)-phenylalaminol] was tested. Which ED50 (monkey 92N012) did it give?
Its ED50 is 1.8 mg/kg.

And the ED50 (monkey 153F)?
Its ED50 is 5.6 mg/kg.

And the ED50 (monkey 186F)?
The ED50 was 13.4 mg/kg.

And the ED50 (monkey L958)?
The ED50 was 5.6 mg/kg.

What about the Overt behavioral effects (across the dose range tested (0.1-18 mg/kg)) of the same compound?
The Overt behavioral effects was “did not produce noticeable overt behavioral effects”.

And the “Substitution for the cocaine training stimulus” value (all four monkeys, 0.1-18 mg/kg)?
Its value is “dose-dependent and complete substitution; also recorded: substituted completely”.

What about the “Effect on response rates” value (monkey 92N012) of the same compound?
Its value is “increased response rates”.

And the “Effect on response rates” value (monkey 153F)?
Its value is “decreased response rates”.

And the “Effect on response rates” value (monkey 186F)?
Its value is “had no effect on response rates”.

And the “Potency relative to cocaine (fold less potent)” value (rhesus monkeys, cocaine-like behavioral effects)?
The value was “approximately 20 fold”.

— patent US8232315B2, “Methods for treating drug addiction and improving addiction-related behavior” (SK Biopharmaceuticals Co., Ltd., priority 2009, dated 2012)
